# Measurements published in PMC11336141.
# Bridge positions count the residues as written; N and C are the ends. Square brackets hold non-standard residues; d marks the D form. Peptide text beside a SMILES is read from it.
# Key:
# human SSTR2 (GoB) = molecular target: T1, human SSTR2 (GoB) (Homo sapiens, UniProt P30874); experiment: G protein activation (BRET dissociation) assay, GoB at hSSTR2; assay type: cell-based;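 as to Emax ± S.E.M.: percent of the maximal response to the reference somatostatin agonist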
# T1 construct: host or cells: HEK293T cells
# T1 sequence (P30874 whole entry): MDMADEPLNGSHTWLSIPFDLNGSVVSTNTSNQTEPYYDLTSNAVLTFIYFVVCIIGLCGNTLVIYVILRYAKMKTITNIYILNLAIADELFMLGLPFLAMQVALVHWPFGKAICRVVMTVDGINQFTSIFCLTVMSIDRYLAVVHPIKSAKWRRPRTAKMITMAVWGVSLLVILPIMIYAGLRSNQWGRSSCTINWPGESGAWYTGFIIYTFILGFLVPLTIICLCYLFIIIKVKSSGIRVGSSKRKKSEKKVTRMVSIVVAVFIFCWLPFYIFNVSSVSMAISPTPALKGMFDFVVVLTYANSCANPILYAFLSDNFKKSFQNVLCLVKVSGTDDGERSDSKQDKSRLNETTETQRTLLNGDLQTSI
# Experimental: HEK293T cells were seeded onto 6-well plates at a density of 750,000 cells/well. […] 16 to 24 hours post-transfection, HEK293T cells were seeded onto white 96 well plate (PerkinElmer) coated with poly-L-lysine (PLL) at a density of 40,000 cells/well and were allowed to grow overnight. On the day of assay, cells were washed once with phosphate-based saline (PBS) and 80 µL of assay buffer which composed of PBS with 0.5 mM MgCl2 and 0.1% glucose, pH 7.4, were added onto each well. 10 µL of Nluc luciferase substrate furimazine (Promega) were added onto each well and incubated for 3 minutes.
# The net BRET ratio was determined by subtracting the BRET ratio of drugs with the BRET ratio of vehicle control. Net BRET ratio over time was then plotted using GraphPad Prism (v.9.4.1), and the area-under-curve of net BRET ratio over time course for each ligand concentration tested were then determined and plotted against log(concentration) of drugs tested. […] Concentration response curves were fitted with a 4-parameter logistic Eq. (1) using GraphPad Prism (v.9.4.1):1 Y=Emin+(Emax−Emin)/1+10^logEC50−X×Hillslope
# Dr-sstr2a (GoA) = experiment: G protein dissociation assay, GoA at Dr-sstr2a; assay type: cell-based, zebrafish (Danio rerio); settings: HEK293T cells
# Excerpt: (§1) 3xHA-tagged human SSTR2 construct was obtained from cDNA.org (cDNA resource center, Bloomsburg PA, US). […] Kirill Martemyanov (University of Florida, US). Tango constructs for human SSTR1-5 were kind gifts from Prof. Bryan Roth (University of North Carolina, Chapel Hill, US) (Addgene kit # 1000000068). Tango constructs for fish Dr-sstr2a (sequence accession number: XP_005170178.1) and Dr-sstr2b (sequence accession number: XP_017210358.1) were custom-synthesized by Twist Biosciences using the Tango construct template as described in Kroeze et al., 2015[28]. 3xHA-tagged Dr-sstr2a and 3xHA tagged Dr-sstr2b constructs were inserted into pcDNA3.1 backbone. All DNA constructs were sequenced and confirmed prior to use.
# (§2) Error bars represent means ± S.E.M. of n = 3 in technical duplicates.
# Dr-sstr2b (GoA) = experiment: G protein dissociation assay, GoA at Dr-sstr2b; assay type: cell-based, zebrafish (Danio rerio)
# Excerpt: as §1, §2
# isolated mouse islets = experiment: Glucagon secretion from isolated islets; assay type: cell-based, mouse (C57BL/6J); settings: for Islet glucagon secretion: -9 log M peptide
# Experimental: Female C57BL/6 J mice of 12–20 weeks were used for the islet secretion. Mice were killed by cervical dislocation and pancreatic islets were isolated as previously described. […] The islets were subsequently incubated with or without drugs in 10 mM glucose KRB for an hour. Supernatant from both incubations were collected. Total islet glucagon content was determined by acid-ethanol extraction. Both the supernatant and the acid-ethanol content were stored at −80 °C until further analysis. Glucagon in both supernatant and content were measured using U-plex metabolic 2-plex combo (mouse insulin and glucagon) kit (Meso Scale Diagnostic; catalog no: K15303K) according to manufacturer’s instruction.
# (§3) Data analysis were performed in GraphPad Prism (v.9.4.1). Statistical analysis were performed using two-way repeated measure analysis of variance (ANOVA) with Šidák test for isolated islets glucagon secretion and one-way repeated measure ANOVA with Dunnett's test for rat pancreas perfusion experiments. Statistical significance was taken as p < 0.05.
# perfused rat pancreas = experiment: Rat pancreas perfusion, insulin output; design: species or system rat (Wistar); settings: for effect on insulin secretion: 0.1 nM, 1 nM and 10 nM, […] glucose, n = 5 rats; for Insulin output: Mean
# Experimental: Non-fasted rats were anesthetized by a subcutaneous injection of a balanced mix of hypnorm and midazolam (0.3 mL/100 g body weight). Rats were placed on a heated operating table (37 °C) and the abdomen were opened. Blood vessels were tied off before removing the large and small intestines, the stomach, and the spleen. Then, the kidneys were ligated. […] The perfusion buffer was a modified Krebs-Ringer bicarbonate buffer with 5% (w/v) dextran T-70 (Pharmacosmos, Holbaek, Denmark), 0.1% (w/v) BSA (fraction V), 3.5 mM glucose and 3 mM vamin (Fresenius Kabi, Copenhagen, Denmark), pH adjusted to 7.4. […] Once perfusion of the pancreas was established, a catheter was inserted in the vena portae to collect the venous effluent and the rat was sacrificed by perforation of the diaphragm. After a 30-minute equilibration period, samples were collected every minute for the duration of the protocol. […] 10 mM L-Arginine was used as a positive control. Collected samples were immediately transferred on ice and stored at −20 °C until hormone analysis. Glucagon, insulin, and somatostatin concentrations in venous effluents were quantified by use of validated in-house radioimmunoassays (RIA) as previously described[36] (see below). Statistical analysis were performed where appropriate using one-way analysis of variance (ANOVA) with Dunnett’s post-test. Statistical significance was taken as p < 0.05.
# Glucagon concentration in perfusion samples were measured by a validated in-house RIAs using the 4305 antibody, which reacts with the C-terminal epitope of glucagon[36] and no other cleavage products of pro-glucagon. Insulin concentrations were measured with the 2006 antibody, which measures all isoforms of rat insulin. […] Assay sensitivity was <1 pmol/L ( < 5 pmol/L for insulin detection), allowing reliable measurements of increments of at least 25 fmol/min.
# as §3
# [1] = test system: Dr-sstr2a with the ECL2 region of the hSSTR2; experiment: Activation of hybrid receptor (ECL2 of hSSTR2 inserted into Dr-sstr2a); assay type: cell-based; settings: preliminary results, peer review file
# Excerpt: To further address this, we have begun to perform mutagenesis studies on the Dr-sstr2a.
# human SSTR2 = human SSTR2 (Homo sapiens, UniProt P30874); experiment: PRESTO-Tango β-arrestin recruitment assay, hSSTR2
# Chain of human SSTR2 (P30874 whole entry): as above
# Experimental: HTLA cells were given by Prof. Bryan Roth (University of North Carolina, Chapel Hill, US) and were maintained in Dulbecco’s modified Eagle’s medium (DMEM) supplemented with 10% Fetal Bovine Serum (FBS) (Biowest) and 100 U/mL penicillin and 100 µg/mL streptomycin at 37 °C in a humidified incubator supplemented with 5% CO2. Constant selective pressure for tTA-dependent luciferase reporter and a β-arrestin 2 tobacco etch virus protease fusion gene were maintained with the addition of 100 µg/mL hygromycin B and 2 µg/ml puromycin (Tango growth medium).
# Briefly, HTLA cells (1 million cells/well) were seeded in 6-well plates in Tango growth medium, and incubated overnight. On day 2, medium was changed to Tango growth medium without hygromycin B and puromycin. Cells were then transfected using Polyfect (Qiagen) according to manufacturer’s protocol. On day 3, 15,000 cells in 40 µL DMEM supplemented with 1% dialyzed FBS (Tango assay medium) per well were seeded in poly-D-lysine-coated white clear-bottom 384 well plates (Corning) and incubated overnight. On day 4, the Tango assay medium was changed and 10 µL of each of the peptide was added at 5x final concentration. The peptides were resuspended in HBSS with 20 mM HEPES, 1 mM of CaCl2, 1 mM of MgCl2, pH adjusted to 7.4 with 1 M NaOH (Tango assay buffer), which was supplemented with 0.1% BSA (Tango ligand buffer). After overnight incubation, on day 5, the medium and the compounds were removed from the cells and 20 µL of 1:20 dilution of BrightGlo (Promega) in Tango assay buffer supplemented with 0.01% pluronic F68 was added to the cells. Plates were incubated for 20 minutes in the dark at room temperature. Luminescence was measured on a Molecular Devices SpectraMax iD5 (Molecular Devices) with each well integrated for 1 second.
smiles,measurement,setting,value
CC(C)C[C@H](N)C(=O)N[C@@H](Cc1ccccc1)C(=O)N[C@H]1CSSC[C@@H](C(=O)N[C@@H](Cc2c[nH]c3ccccc23)C(=O)O)NC(=O)[C@H](CO)NC(=O)[C@H](CCCCN)NC(=O)[C@@H](Cc2c[nH]c3ccccc23)NC(=O)[C@H](Cc2ccccc2)NC1=O [pG1] (H-LFCF[dW]KSCW-OH; disulfide 3-8),Emax,human SSTR2 (GoB),76.7 ± 3.62%
same,Hill Slope,"human SSTR2 (GoB); Table S2, GαoB",1.46 ± 0.41
same,Span ± S.E.M.,"human SSTR2 (GoB); Table S2, GαoB",76.77 ± 4.97
same,EC50,"human SSTR2 (GoB); Table S2, GαoB, HEK293T, means ± S.E.M.",8.32 nM
same,GoA dissociation at Dr-sstr2a in words,Dr-sstr2a (GoA),only induced GoA dissociation at the Dr-sstr2b but not the Dr-sstr2a
same,GoA dissociation at Dr-sstr2b in words,Dr-sstr2b (GoA); HEK293T cells,only induced GoA dissociation at the Dr-sstr2b but not the Dr-sstr2a
same,Hill Slope,"Dr-sstr2b (GoA); Table S5, GoA",0.48 ± 0.10
same,Span ± S.E.M.,"Dr-sstr2b (GoA); Table S5, GoA",100.43 ± 11.98
same,Emax ± S.E.M.,"Dr-sstr2b (GoA); Table S5, GoA, % of maximal response relative to SS-14",105.52 ± 10.37%
same,pEC50 ± S.E.M.,"Dr-sstr2b (GoA); Table S5, GoA, HEK293T",7.95 ± 0.19
same,decrease of glucagon secretion,"isolated mouse islets; 1 nM peptide, 1 mM glucose, 1 hour, p < 0.01, n = 9",~ 33%
same,effect on glucagon secretion in high glucose,"isolated mouse islets; 1 nM peptide, 10 mM glucose",Neither SS-14 nor Consomatin pG1 affected glucagon secretion in high glucose conditions
same,Islet glucagon secretion,"isolated mouse islets; 1mM glucose, replicate 1",0.1528
same,Islet glucagon secretion,"isolated mouse islets; 1mM glucose, replicate 2",0.1799
same,Islet glucagon secretion,"isolated mouse islets; 1mM glucose, replicate 3",0.229
same,Islet glucagon secretion,"isolated mouse islets; 1mM glucose, replicate 4",0.1754
same,Islet glucagon secretion,"isolated mouse islets; 1mM glucose, replicate 5",0.2817
same,Islet glucagon secretion,"isolated mouse islets; 1mM glucose, replicate 6",0.2671
same,Islet glucagon secretion,"isolated mouse islets; 1mM glucose, replicate 7",0.309
same,Islet glucagon secretion,"isolated mouse islets; 1mM glucose, replicate 8",0.2377
same,Islet glucagon secretion,"isolated mouse islets; 1mM glucose, replicate 9",0.1574
same,Islet glucagon secretion,"isolated mouse islets; 10mM glucose, replicate 1",0.1057
same,Islet glucagon secretion,"isolated mouse islets; 10mM glucose, replicate 2",0.1136
same,Islet glucagon secretion,"isolated mouse islets; 10mM glucose, replicate 3",0.1366
same,Islet glucagon secretion,"isolated mouse islets; 10mM glucose, replicate 4",0.1392
same,Islet glucagon secretion,"isolated mouse islets; 10mM glucose, replicate 5",0.1398
same,Islet glucagon secretion,"isolated mouse islets; 10mM glucose, replicate 6",0.1241
same,Islet glucagon secretion,"isolated mouse islets; 10mM glucose, replicate 7",0.1488
same,Islet glucagon secretion,"isolated mouse islets; 10mM glucose, replicate 8",0.2037
same,Islet glucagon secretion,"isolated mouse islets; 10mM glucose, replicate 9",0.1689
same,effect on insulin secretion,perfused rat pancreas,did not affect insulin and somatostatin output at low glucose (3.5 mM)
same,effect on insulin secretion,perfused rat pancreas; listed as Consomatin pG1,no effect on somatostatin or insulin secretion in 3.5 mM glucose
same,Insulin output,"perfused rat pancreas; 0.1nM, replicate 1",35.5
same,Insulin output,"perfused rat pancreas; 0.1nM, replicate 2",10
same,Insulin output,"perfused rat pancreas; 0.1nM, replicate 3",25.5
same,Insulin output,"perfused rat pancreas; 0.1nM, replicate 4",51
same,Insulin output,"perfused rat pancreas; 0.1nM, replicate 5",14
same,Insulin output,"perfused rat pancreas; 1nM, replicate 1",15.5556
same,Insulin output,"perfused rat pancreas; 1nM, replicate 2",29
same,Insulin output,"perfused rat pancreas; 1nM, replicate 3",40
same,Insulin output,"perfused rat pancreas; 1nM, replicate 4",74.5
same,Insulin output,"perfused rat pancreas; 1nM, replicate 5",0
same,Insulin output,"perfused rat pancreas; 10nM, replicate 1",25
same,Insulin output,"perfused rat pancreas; 10nM, replicate 2",0
same,Insulin output,"perfused rat pancreas; 10nM, replicate 3",15
same,Insulin output,"perfused rat pancreas; 10nM, replicate 4",35
same,Insulin output,"perfused rat pancreas; 10nM, replicate 5",11.5
same,activation of hybrid receptor in words,[1],activation of this hybrid receptor
same,EC50,human SSTR2,3.55 nM
same,activation of hSSTR2 in words,"human SSTR2; PRESTO-Tango, HTLA cells",potent and selective SSTR2 full agonist
same,Hill Slope,human SSTR2; Table S1,0.50 ± 0.06
same,Span ± S.E.M.,human SSTR2; Table S1,106.03 ± 6.98
same,Emax,"human SSTR2; read-out: Emax ± S.E.M., Table S1, % of maximal response relative to SS-14",105 ± 3.01%
